According to EPA's ToxValDB 9.5 (doi:10.2903/j.efsa.2007.107r):

What was measured:
Typhlodromus pyri = test: LR50; higher = less toxic; details: acute; duration: 7 days; reproduction
Tagia sp. = details: acute; duration: 14 days; mortality
Daphnia magna = details: chronic/long-term; duration: 21 days
Oryctolagus sp. = details: developmental; development
Apis mellifera = details: acute; oral; unspecified; mortality

For `CC(C)OC(=O)N[C@H](C(=O)N[C@H](C)c1nc2ccc(F)cc2s1)C(C)C` [Benthiavalicarb-isopropyl], the LR50 (Typhlodromus pyri) was 290 g/ha, the LC50 (Tagia sp.) was greater than 500 mg/kg and the LC50 (Oncorhynchus mykiss; acute, duration: 96 hours, mortality) was greater than 10 µg/mL. It also gave an NOEC (Oncorhynchus mykiss; chronic/long-term, duration: 28 days) of 1 mg/L, an NOEC (Daphnia magna) of 3 mg/L and an LC50 (Colinus virginianus; acute, oral, diet, mortality) greater than 937 mg/kg-day. The LD50 (Colinus virginianus; acute, oral, mortality) was greater than 2000 mg/kg, the NOEL (Colinus virginianus; reproduction developmental, duration: 24 weeks) was 105 mg/kg-day and the NOAEL (Oryctolagus sp.) was 20 mg/kg-day. The LD50 (Rattus norvegicus; acute, oral, mortality) was greater than 5000 mg/kg, the NOAEL (Rattus norvegicus; chronic, duration: 2 years, clinical chemistry) was 9.9 mg/kg-day and the NOAEL (Rattus norvegicus; reproduction developmental, organ weight) was 10 mg/kg-day. It also gave an LD50 (Apis mellifera) greater than 100 µg/piece.
